pEC50, pIC50: −log10 of the molar value. Where two headings read alike, the source gives them in different places.
How the values were obtained:
SARS-CoV-2 3CL protease = SARS-CoV-2 3CL protease (Severe acute respiratory syndrome coronavirus 2, UniProt P0DTD1); assay: Inhibitory activity test against SARS-CoV-2 3CL proteases; assay type: biochemical
SARS-CoV-2 = assay: Inhibitory activity of cytopathic effect (CPE) in HEK293T/ACE2-TMPRSS2 cells; assay type: cell-based; details: Severe acute respiratory syndrome coronavirus 2, HEK-293T, 72 h, HEK293T/ACE2-TMPRSS2 cells
[1] = read-out: IC50 (50% SARS-CoV-2 3CL protease inhibitory concentration)
[2] = cultured 3 days, CellTiter-Glo 2.0 luminescence, read-out: EC50 (50% SARS-CoV-2 infected cell death inhibitory concentration)
[3] = 50% SARS-CoV-2 infected cell death inhibitory concentration, CellTiter-Glo 2.0 after 3 days culture, read-out: EC50
[4] = IC50 (50% SARS-CoV-2 3CL protease inhibitory concentration)

| Compound | pIC50 (SARS-CoV-2 3CL protease; [1]) | pEC50 (SARS-CoV-2; [2]) | pEC50 (SARS-CoV-2; [3]) | pIC50 (SARS-CoV-2 3CL protease; [4]) |
| --- | --- | --- | --- | --- |
| COc1nc(N2CCC(O)(CF)C2)cc2c1c(=O)n(-c1cncc(Cl)c1)c(=O)n2-c1ccc(F)c(Cl)c1 (stereo not drawn) [Compound I-1004] | > 7.00 | > 7.00 | – | – |
| [2H]C([2H])([2H])O[C@@H]1CCN(c2cc3c(c(OC)n2)c(=O)n(-c2cnc4cc(F)ccn24)c(=O)n3-c2ccc(F)c(F)c2)C1 [Compound I-1005] | 8.05 | – | 8.06 | – |
| COc1nc(N(C)CC(F)(F)F)cc2c1c(=O)n(-c1cnc3cc(F)ccn13)c(=O)n2-c1ccc(F)c(Cl)c1 [Compound I-1006] | > 7.00 | > 7.00 | – | – |
| COc1nc(N2CCC(S(C)(=O)=O)C2)cc2c1c(=O)n(-c1cnc3cc(F)ccn13)c(=O)n2-c1ccc(F)c(Cl)c1 (stereo not drawn) [Compound I-1007] | > 7.00 | 6.00 to 7.00 | – | – |
| COC[C@@H]1CCN(c2cc3c(c(OC)n2)c(=O)n(-c2cncc(Cl)c2)c(=O)n3-c2ccc(F)c(Cl)c2)C1 [Compound I-1008] | > 7.00 | > 7.00 | – | – |
| COc1nc(N2CCC(F)(F)C2)cc2c1c(=O)n(-c1cnc3cc(F)c(F)cn13)c(=O)n2-c1ccc(F)c(Cl)c1 [Compound I-1009] | > 7.00 | > 7.00 | – | – |
| COc1nc(N2CCC(C)(O)C2)cc2c1c(=O)n(-c1cncc(Cl)c1)c(=O)n2-c1ccc(F)c(Cl)c1 (stereo not drawn) [Compound I-1010] | > 7.00 | > 7.00 | – | – |
| [2H]C([2H])([2H])O[C@@H]1CCN(c2cc3c(c(OC)n2)c(=O)n(-c2cnc4cc(F)ccn24)c(=O)n3-c2ccc(F)c(C(F)(F)F)c2)C1 [Compound I-1011] | > 7.00 | > 7.00 | – | – |
| [2H]C([2H])([2H])O[C@@H]1CCN(c2cc3c(c(OC)n2)c(=O)n(-c2cncc(OCF)c2)c(=O)n3-c2ccc(F)c(F)c2)C1 [Compound I-1012] | > 7.00 | > 7.00 | – | – |
| COc1nc(N2CCOCC2)cc2c1c(=O)n(-c1cncc(Cl)c1)c(=O)n2-c1ccc(F)c(Cl)c1 [Compound I-1013] | > 7.00 | > 7.00 | – | – |
| COc1nc(N2CCC(F)(F)C2)cc2c1c(=O)n(-c1cnc3cc(F)ccn13)c(=O)n2-c1ccc(F)c(C(F)F)c1 [Compound I-1015] | > 7.00 | > 7.00 | – | – |
| COc1nc(C2=CCOCC2)cc2c1c(=O)n(-c1cnc3cc(F)ccn13)c(=O)n2-c1ccc(F)c(Cl)c1 [Compound I-1016] | > 7.00 | > 7.00 | – | – |
| COc1nc(N2CC(C#N)C2)cc2c1c(=O)n(-c1cnc3cc(F)ccn13)c(=O)n2-c1ccc(F)c(Cl)c1 [Compound I-1017] | > 7.00 | > 7.00 | – | – |
| COc1nc(N2CCC(F)(F)C2)cc2c1c(=O)n(-c1cncc(C(F)F)c1)c(=O)n2-c1ccc(F)c(Cl)c1 [Compound I-1018] | > 7.00 | > 7.00 | – | – |
| C=C(C)c1cc2c(c(OC)n1)c(=O)n(-c1cnc3cc(F)ccn13)c(=O)n2-c1ccc(F)c(Cl)c1 [Compound I-1019] | 7.96 | – | 6.24 | – |
| COc1nc(N2C[C@@H](F)[C@@H](F)C2)cc2c1c(=O)n(-c1cnc3cc(F)ccn13)c(=O)n2-c1ccc(F)c(F)c1 [Compound I-1020] | > 7.00 | > 7.00 | – | – |
| COc1nc(C2CCOCC2)cc2c1c(=O)n(-c1cnc3cc(F)ccn13)c(=O)n2-c1ccc(F)c(Cl)c1 [Compound I-1021] | 7.92 | – | 7.79 | – |
| COc1nc(N2CCC(N(C)C)C2)cc2c1c(=O)n(-c1cncc(Cl)c1)c(=O)n2-c1ccc(F)c(Cl)c1 (stereo not drawn) [Compound I-1022] | > 7.00 | > 7.00 | – | – |
| CCc1nc(N2CCC(F)(F)C2)cc2c1c(=O)n(-c1cncc(Cl)c1)c(=O)n2-c1ccc(F)c(F)c1 [Compound I-1023] | > 7.00 | > 7.00 | – | – |
| COc1nc(N2CC[C@@H](OC(F)F)C2)cc2c1c(=O)n(-c1cnc3cc(F)ccn13)c(=O)n2-c1ccc(F)c(F)c1 [Compound I-1024] | > 7.00 | > 7.00 | – | – |
| COc1nc(N2CC[C@@H](O)C2)cc2c1c(=O)n(-c1cncc(OCF)c1)c(=O)n2-c1ccc(F)c(F)c1 [Compound I-1025] | > 7.00 | > 7.00 | – | – |
| [2H]C([2H])([2H])O[C@@H]1CCN(c2cc3c(c(OC)n2)c(=O)n(-c2cncc(C#N)c2)c(=O)n3-c2ccc(F)c(F)c2)C1 [Compound I-1026] | > 7.00 | > 7.00 | – | – |
| COc1nc(N2CC[C@@H](O)C2)cc2c1c(=O)n(-c1cncc(C#N)c1)c(=O)n2-c1ccc(F)c(F)c1 [Compound I-1027] | > 7.00 | > 7.00 | – | – |
| [2H]C([2H])([2H])O[C@@H]1CCN(c2cc3c(c(OC)n2)c(=O)n(-c2cncc(F)c2)c(=O)n3-c2ccc(F)c(F)c2)C1 [Compound I-1028] | > 7.00 | > 7.00 | – | – |
| COc1nc(NC2CC2)cc2c1c(=O)n(-c1cnc3cc(F)ccn13)c(=O)n2-c1ccc(F)c(Cl)c1 [Compound I-1029] | > 7.00 | > 7.00 | – | – |
| COc1nc(N2C[C@@H]3C[C@H]2CO3)cc2c1c(=O)n(-c1cncc(F)c1)c(=O)n2-c1ccc(F)c(F)c1 [Compound I-1030] | > 7.00 | > 7.00 | – | – |

| Compound | pIC50 (SARS-CoV-2 3CL protease; [1]) | pEC50 (SARS-CoV-2; [2]) | pEC50 (SARS-CoV-2; [3]) | pIC50 (SARS-CoV-2 3CL protease; [4]) |
| --- | --- | --- | --- | --- |
| COc1nc(N2CC[C@@H](NC(C)=O)C2)cc2c1c(=O)n(-c1cnc3cc(F)ccn13)c(=O)n2-c1ccc(F)c(Cl)c1 [Compound I-1031] | > 7.00 | 6.00 to 7.00 | – | – |
| CCc1cc2c(c(OC)n1)c(=O)n(-c1cnc3cc(F)ccn13)c(=O)n2-c1ccc(F)c(Cl)c1 [Compound I-1032] | > 7.00 | > 7.00 | – | – |
| COC[C@@H]1CCN(c2cc3c(c(OC)n2)c(=O)n(-c2cnc4cc(F)ccn24)c(=O)n3-c2ccc(F)c(Cl)c2)C1 [Compound I-1033] | > 7.00 | > 7.00 | – | – |
| COc1nc(N(C)C(C)C)cc2c1c(=O)n(-c1cnc3cc(F)ccn13)c(=O)n2-c1ccc(F)c(Cl)c1 [Compound I-1034] | > 7.00 | > 7.00 | – | – |
| COc1nc(N2CC(F)(F)C2)cc2c1c(=O)n(-c1cnc3cc(F)ccn13)c(=O)n2-c1ccc(F)c(Cl)c1 [Compound I-1035] | – | > 7.00 | – | > 7.00 |
| COc1nc(N2CCC(O)(C(F)F)C2)cc2c1c(=O)n(-c1cncc(Cl)c1)c(=O)n2-c1ccc(F)c(Cl)c1 (stereo not drawn) [Compound I-1036] | > 7.00 | > 7.00 | – | – |
| COc1nc(N2CCC(O)(CF)C2)cc2c1c(=O)n(-c1cnc3cc(F)ccn13)c(=O)n2-c1ccc(F)c(Cl)c1 (stereo not drawn) [Compound I-1037] | > 7.00 | > 7.00 | – | – |
| [2H]C([2H])([2H])O[C@@H]1CCN(c2cc3c(c(OC)n2)c(=O)n(-c2cncc(OC(F)F)c2)c(=O)n3-c2ccc(F)c(F)c2)C1 [Compound I-1038] | > 7.00 | > 7.00 | – | – |
| COc1nc(N2CCC3(COC3)C2)cc2c1c(=O)n(-c1cnc3cc(F)ccn13)c(=O)n2-c1ccc(F)c(Cl)c1 [Compound I-1039] | > 7.00 | > 7.00 | – | – |
| COc1nc(N2CC[C@@H](O)C2)cc2c1c(=O)n(-c1cncc(OC(F)F)c1)c(=O)n2-c1ccc(F)c(F)c1 [Compound I-1040] | > 7.00 | > 7.00 | – | – |
| COc1nc(NCC(F)(F)F)cc2c1c(=O)n(-c1cnc3cc(F)ccn13)c(=O)n2-c1ccc(F)c(Cl)c1 [Compound I-1041] | > 7.00 | > 7.00 | – | – |
| CNc1cc2c(c(OC)n1)c(=O)n(-c1cnc3cc(F)ccn13)c(=O)n2-c1ccc(F)c(Cl)c1 [Compound I-1042] | > 7.00 | > 7.00 | – | – |
| COc1nc(N2CCC(C)(O)C2)cc2c1c(=O)n(-c1cnc3cc(F)ccn13)c(=O)n2-c1ccc(F)c(Cl)c1 (stereo not drawn) [Compound I-1043] | > 7.00 | > 7.00 | – | – |
| COc1nc(N2CC[C@@H](O)C2)cc2c1c(=O)n(-c1cncc(F)c1)c(=O)n2-c1ccc(F)c(F)c1 [Compound I-1044] | > 7.00 | > 7.00 | – | – |
| COc1nc(N2CC[C@@H](C(=O)N(C)C)C2)cc2c1c(=O)n(-c1cnc3cc(F)ccn13)c(=O)n2-c1ccc(F)c(Cl)c1 [Compound I-1045] | > 7.00 | > 7.00 | – | – |
| COc1nc(NC2CCCC2)cc2c1c(=O)n(-c1cnc3cc(F)ccn13)c(=O)n2-c1ccc(F)c(Cl)c1 [Compound I-1046] | – | > 7.00 | – | > 7.00 |
| C=Cc1cc2c(c(OC)n1)c(=O)n(-c1cnc3cc(F)ccn13)c(=O)n2-c1ccc(F)c(F)c1 [Compound I-1047] | > 7.00 | 6.00 to 7.00 | – | – |
| O=c1c2c(=O)n(-c3cnc4cc(F)ccn34)c(=O)n(-c3ccc(F)c(Cl)c3)c2cc2n1CC[C@@H]1CCCCN21 [Compound I-1048] | 7.64 | – | 6.36 | – |
| COCCNc1cc2c(c(OC)n1)c(=O)n(-c1cnc3cc(F)ccn13)c(=O)n2-c1ccc(F)c(Cl)c1 [Compound I-1049] | – | > 7.00 | – | > 7.00 |
| COC[C@H]1CCCN1c1cc2c(c(OC)n1)c(=O)n(-c1cnc3cc(F)ccn13)c(=O)n2-c1ccc(F)c(Cl)c1 [Compound I-1050] | > 7.00 | > 7.00 | – | – |
| O=c1c2c(=O)n(-c3cnc4cc(F)ccn34)c(=O)n(-c3ccc(F)c(Cl)c3)c2cc2n1CC[C@H]1CCCN21 [Compound I-1051] | > 7.00 | 6.00 to 7.00 | – | – |
| COc1nc(N2C[C@@H](F)[C@@H](OC)C2)cc2c1c(=O)n(-c1cnc3cc(F)ccn13)c(=O)n2-c1ccc(F)c(Cl)c1 [Compound I-1052] | > 7.00 | > 7.00 | – | – |
| COc1nc(NC2CCC2)cc2c1c(=O)n(-c1cnc3cc(F)ccn13)c(=O)n2-c1ccc(F)c(Cl)c1 [Compound I-1053] | > 7.00 | > 7.00 | – | – |
| COc1nc(N2CCOC[C@H]2C)cc2c1c(=O)n(-c1cnc3cc(F)ccn13)c(=O)n2-c1ccc(F)c(Cl)c1 [Compound I-1054] | > 7.00 | > 7.00 | – | – |
| COc1nc(N2CCC(N(C)C)C2)cc2c1c(=O)n(-c1cnc3cc(F)ccn13)c(=O)n2-c1ccc(F)c(Cl)c1 (stereo not drawn) [Compound I-1055] | > 7.00 | > 7.00 | – | – |
